Measured values taken from patent US9611221B2, “Histone demethylase inhibitors” (CELGENE QUANTICEL RESEARCH, INC., priority 2012, dated 2017).

What was measured:
Type in all cases: biochemical
Jarid1A = Jarid1A (Homo sapiens (Human), UniProt P29375); assay: Jarid1A in vitro enzyme inhibition assay (TR-FRET); settings: 1 nM Jarid1A, 300 nM H3K4me3-biotin peptide, 2 μM alpha-ketoglutaric acid
Source text: (§1) This assay determines the ability of a test compound to inhibit Jarid1A, Jarid1B, and JMJD2C demethylase activity. Baculovirus expressed Jarid1A (GenBank Accession #NM_001042603, AA1-1090) was purchased from BPS Bioscience (Cat#50110). Baculovirus expressed Jarid1B (GenBank Accession #NM_006618, AA 2-751) was purchased from BPS Bioscience (Cat #50121) or custom made by MolecularThroughput. Baculovirus expressed JMJD2C (GenBank Accession #BC143571, AA 2-372) was purchased from BPS Bioscience (Cat#50105).
(§2) The enzymatic assay of Jarid1A activity is based upon Time Resolved-Fluorescence Resonance Energy Transfer (TR-FRET) detection. The ability of test compounds to inhibit the activity of Jarid1A was determined in 384-well plate format under the following reaction conditions: 1 nM Jarid1A, 300 nM H3K4me3-biotin labeled peptide (Anaspec cat #64357), 2 μM alpha-ketoglutaric acid in assay buffer of 50 mM HEPES, pH7.3, 0.005% Brij35, 0.5 mM TCEP, 0.2 mg/ml BSA, 50 μM sodium L-ascorbate, and 2 μM ammonium iron(II) sulfate. Reaction product was determined quantitatively by TR-FRET after the addition of detection reagent Phycolink Streptavidin-allophycocyanin (Prozyme) and Europium-anti-mono- or di-methylated histone H3 lysine 4 (H3K4me1-2) antibody (PerkinElmer) in the presence of 5 mM EDTA in LANCE detection buffer (PerkinElmer) at a final concentration of 25 nM and 1 nM, respectively.
(§3) The reaction mixture was incubated at room temperature for 30 minutes, and terminated by the addition of 6 μl of 5 mM EDTA in LANCE detection buffer containing 50 nM Phycolink Streptavidin-allophycocyanin and 2 nM Europium-anti-H3K4me1-2 antibody. Plates were read by EnVisionMultilabel Reader in TR-FRET mode (excitation at 320 nm, emission at 615 nm and 665 nm) after 1 hour incubation at room temperature. A ratio was calculated (665/615) for each well and fitted to determine inhibition constant (IC50).

JMJD2C = JMJD2C (Homo sapiens (Human), UniProt Q9H3R0); assay: JMJD2C in vitro enzyme inhibition assay (TR-FRET); settings: 0.3 nM JMJD2C, 300 nM H3K9me3-biotin peptide, 2 μM alpha-ketoglutaric acid
How it was run: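 Baculovirus-expressed JMJD2C (AA 2-372), 0.3 nM, with 300 nM biotin-H3K9me3 peptide and 2 μM alpha-ketoglutarate in pH 7.3 HEPES buffer with ascorbate and Fe(II); 30 min at room temperature.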

Jarid1B = Jarid1B (Homo sapiens (Human), UniProt Q9UGL1); assay: Jarid1B in vitro enzyme inhibition assay (TR-FRET); settings: 0.8 nM Jarid1B, 300 nM H3K4me3-biotin peptide, 2 μM alpha-ketoglutaric acid
Source text: as §1
as §2, with “The” for “The enzymatic assay of Jarid1A activity is based upon Time Resolved-Fluorescence Resonance Energy Transfer (TR-FRET) detection. The”, “of Jarid1B” for “of Jarid1A”, “conditions: 0.8” for “conditions: 1”, “nM Jarid1B,” for “nM Jarid1A,”
as §3

JMJD2C, sequence (Q9H3R0 2-372): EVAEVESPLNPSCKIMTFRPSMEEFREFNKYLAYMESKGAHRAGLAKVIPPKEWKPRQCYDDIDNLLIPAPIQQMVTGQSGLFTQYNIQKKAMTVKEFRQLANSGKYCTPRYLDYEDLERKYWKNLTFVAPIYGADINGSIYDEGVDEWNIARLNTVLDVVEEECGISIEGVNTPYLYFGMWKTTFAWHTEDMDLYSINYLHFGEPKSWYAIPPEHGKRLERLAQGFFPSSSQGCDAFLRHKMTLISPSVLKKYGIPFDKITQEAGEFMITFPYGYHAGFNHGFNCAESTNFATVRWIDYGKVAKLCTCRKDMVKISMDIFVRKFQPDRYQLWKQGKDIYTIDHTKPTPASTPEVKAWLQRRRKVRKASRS
Jarid1A, sequence (P29375 1-1090): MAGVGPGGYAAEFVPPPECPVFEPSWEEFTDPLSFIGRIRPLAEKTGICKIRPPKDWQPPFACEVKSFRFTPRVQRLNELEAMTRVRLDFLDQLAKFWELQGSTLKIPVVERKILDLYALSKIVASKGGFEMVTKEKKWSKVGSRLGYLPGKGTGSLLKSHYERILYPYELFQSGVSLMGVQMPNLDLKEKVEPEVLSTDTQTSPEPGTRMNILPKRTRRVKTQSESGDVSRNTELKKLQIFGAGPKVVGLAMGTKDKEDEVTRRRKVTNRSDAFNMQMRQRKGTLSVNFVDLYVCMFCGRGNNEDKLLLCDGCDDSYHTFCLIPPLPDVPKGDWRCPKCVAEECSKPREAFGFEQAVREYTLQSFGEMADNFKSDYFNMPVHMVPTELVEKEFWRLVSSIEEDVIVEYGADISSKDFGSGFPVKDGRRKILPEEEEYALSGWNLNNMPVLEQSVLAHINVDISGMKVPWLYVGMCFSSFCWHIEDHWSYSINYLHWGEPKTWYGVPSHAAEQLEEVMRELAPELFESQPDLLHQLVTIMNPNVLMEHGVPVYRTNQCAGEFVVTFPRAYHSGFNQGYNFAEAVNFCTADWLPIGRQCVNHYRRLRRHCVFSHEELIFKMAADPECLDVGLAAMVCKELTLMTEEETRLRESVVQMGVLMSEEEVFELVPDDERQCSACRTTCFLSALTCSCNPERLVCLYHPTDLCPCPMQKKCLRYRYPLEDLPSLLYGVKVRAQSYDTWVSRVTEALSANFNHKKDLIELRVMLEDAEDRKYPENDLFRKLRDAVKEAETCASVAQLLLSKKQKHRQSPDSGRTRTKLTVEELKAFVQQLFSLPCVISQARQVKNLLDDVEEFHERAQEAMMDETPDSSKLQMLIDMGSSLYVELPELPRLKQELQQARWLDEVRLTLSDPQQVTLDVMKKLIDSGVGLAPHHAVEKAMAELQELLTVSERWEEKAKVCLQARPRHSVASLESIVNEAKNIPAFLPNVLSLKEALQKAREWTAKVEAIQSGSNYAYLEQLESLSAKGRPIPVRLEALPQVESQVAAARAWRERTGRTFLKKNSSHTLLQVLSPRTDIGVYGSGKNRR
Jarid1B, sequence (Q9UGL1 2-751): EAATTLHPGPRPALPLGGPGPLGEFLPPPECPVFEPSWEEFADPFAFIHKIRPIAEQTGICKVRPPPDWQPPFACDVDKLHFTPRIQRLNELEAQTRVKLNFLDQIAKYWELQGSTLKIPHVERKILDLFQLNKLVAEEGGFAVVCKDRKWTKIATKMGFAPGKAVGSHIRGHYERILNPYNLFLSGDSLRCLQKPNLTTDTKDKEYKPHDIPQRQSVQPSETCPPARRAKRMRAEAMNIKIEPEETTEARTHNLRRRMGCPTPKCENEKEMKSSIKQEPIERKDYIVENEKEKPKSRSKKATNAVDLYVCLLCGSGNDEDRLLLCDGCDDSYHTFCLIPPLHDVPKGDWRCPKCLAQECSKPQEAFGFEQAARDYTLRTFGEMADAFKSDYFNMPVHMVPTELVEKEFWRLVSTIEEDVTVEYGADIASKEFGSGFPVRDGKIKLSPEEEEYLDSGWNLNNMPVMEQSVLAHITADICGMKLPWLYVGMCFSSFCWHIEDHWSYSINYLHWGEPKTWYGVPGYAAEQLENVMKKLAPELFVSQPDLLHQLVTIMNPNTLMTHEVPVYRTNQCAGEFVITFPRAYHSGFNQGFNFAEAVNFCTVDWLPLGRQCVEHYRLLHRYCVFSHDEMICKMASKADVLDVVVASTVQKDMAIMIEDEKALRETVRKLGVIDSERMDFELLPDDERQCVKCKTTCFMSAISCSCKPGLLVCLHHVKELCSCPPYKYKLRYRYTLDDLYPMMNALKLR

| IC50 (Jarid1A) [nM] | IC50 (JMJD2C) [nM] | IC50 (Jarid1B) [nM] | SMILES |
| --- | --- | --- | --- |
| ≤ 100 | 100 to 1000 | ≤ 100 | O=C(O)c1ccncc1NCC1CCCc2ccccc21 (stereo not drawn) [Example 46, 3-[(1,2,3,4-tetrahydronaphthalen-1-ylmethyl)amino]pyridine-4-carboxylic acid] |
| ≤ 100 | ≤ 100 | ≤ 100 | O=C(O)c1ccncc1NCc1ccc(Br)cc1 [Example 23, 3-[(4-bromobenzyl)amino]pyridine-4-carboxylic acid] |
| ≤ 100 | 100 to 1000 | ≤ 100 | COc1cc(Cl)ccc1CNc1cnccc1C(=O)O [Example 20, 3-[(4-chloro-2-methoxybenzyl)amino]pyridine-4-carboxylic acid] |
| 100 to 1000 | ≤ 100 | 100 to 1000 | O=C(O)c1ccncc1NCC12CC3CC(CC(C3)C1)C2 [Example 42, 3-[(adamantan-1-ylmethyl)amino]pyridine-4-carboxylic acid] |
| ≤ 100 | ≤ 100 | ≤ 100 | O=C(O)c1ccncc1NCc1ccc(Cl)cc1Cl [Example 18, 3-[(2,4-dichlorobenzyl)amino]pyridine-4-carboxylic acid] |
| ≤ 100 | ≤ 100 | ≤ 100 | Cc1ccc(CNc2cnccc2C(=O)O)o1 [Example 40, 3-{[(5-methylfuran-2-yl)methyl]amino}pyridine-4-carboxylic acid] |
| ≤ 100 | 100 to 1000 | ≤ 100 | Cc1ccc(C2CC2)c(CNc2cnccc2C(=O)O)c1 [Example 34, 3-[(2-cyclopropyl-5-methylbenzyl)amino]pyridine-4-carboxylic acid] |
| ≤ 100 | ≤ 100 | ≤ 100 | O=C(O)c1ccncc1NCc1cccc2cc[nH]c12 [Example 29, 3-[(1H-indol-7-ylmethyl)amino]pyridine-4-carboxylic acid] |
| 100 to 1000 | 100 to 1000 | 100 to 1000 | O=C(O)c1ccncc1NC[C@@H]1CCCc2ccccc21 [Example 48, 3-{[(1R)-1,2,3,4-tetrahydronaphthalen-1-ylmethyl]amino}pyridine-4-carboxylic acid] |
| ≤ 100 | ≤ 100 | ≤ 100 | O=C(O)c1ccncc1NCc1cccc2ccccc12 [Example 28, 3-[(naphthalene-1-ylmethyl)amino]pyridine-4-carboxylic acid] |
| ≤ 100 | ≤ 100 | ≤ 100 | Nc1ccccc1CNc1cnccc1C(=O)O [Example 22, 3-[(2-aminobenzyl)amino]pyridine-4-carboxylic acid] |
| ≤ 100 | 100 to 1000 | ≤ 100 | Cc1ccc2c(c1)C(CNc1cnccc1C(=O)O)CCO2 (stereo not drawn) [Example 63, 3-{[(6-methyl-3,4-dihydro-2H-chromen-4-yl)methyl]amino}pyridine-4-carboxylic acid] |
| ≤ 100 | ≤ 100 | ≤ 100 | Cc1ccc(CNc2cnccc2C(=O)O)cc1 [Example 24, 3-[(4-methylbenzyl)amino]pyridine-4-carboxylic acid] |
| ≤ 100 | ≤ 100 | ≤ 100 | O=C(O)c1ccncc1NCc1cc2ccccc2o1 [Example 41, 3-[(1-benzofuran-2-ylmethyl)amino]pyridine-4-carboxylic acid] |

| SMILES | IC50 (Jarid1A) [nM] | IC50 (JMJD2C) [nM] | IC50 (Jarid1B) [nM] |
| --- | --- | --- | --- |
| CC1(CNc2cnccc2C(=O)O)CCCc2ccccc21 (stereo not drawn) [Example 49, 3-{[(1-methyl-1,2,3,4-tetrahydronaphthalen-1-yl)methyl]amino}pyridine-4-carboxylic acid] | 100 to 1000 | 100 to 1000 | 100 to 1000 |
